Assays:
mdx mice = details: cited from earlier work
Source text: […] […] Our ability to collectively achieve such a benefit in GRMD dogs, as well as in mdx diaphragm, [9, 13] and dko hearts, supports the pre-clinical efficacy of NBD. Due to interspecies differences among mice, dogs, and humans, it is difficult to say e ...

GRMD dogs [1] = assay: Histopathologic assessment of skeletal muscles, GRMD dogs; format: in vivo, dog
Experimental: (§1) For mice muscles, histopathological assessment was performed as earlier described. For canine samples, CS, lateral gastrocnemius, vastus lateralis, and diaphragm muscles were assessed at the end of the 4-month treatment period when dogs were necropsied. Muscle samples were snap frozen in isopentane cooled in liquid nitrogen, and stored at -80°C. A total of 16 dogs (3 wild type, 2 wild type + NBD, 5 untreated GRMD, and 6 GRMD + NBD) were assessed. Serial frozen sections (n = 10 per dog) from each muscle were processed. For each stain, quantitation was performed on three 10 μm sections of each muscle. To determine the degree of inflammation, cells that stained with a canine specific macrophage PM2K antibody were quantitated. Muscle damage was assessed by scoring for IgG-positive myofibers using immunofluorescence, and necrotic foci by hematoxylin and eosin (H&E) staining. Centrally located nuclei (CLN) were quantified on H&E sections to determine the degree of regeneration. Staining was quantitated on an Olympus BX51 microscope with Microsuite Five software (Olympus Soft Imaging Solutions GmbH, Center Valley, PA, USA). A composite score for all four muscles, reflecting muscle injury, inflammation, and regeneration, was determined.

wild type and GRMD dogs [2] = details: dog, in vivo
Source text: Necropsies were completed on all six of the NBD-treated GRMD dogs and two of the wild type dogs. Sections of kidney, liver, spleen, lung, heart (right and left ventricle), popliteal lymph node, adrenal gland, thyroid, duodenum, large intestine, pancreas, stomach, and cerebrum were collected and fixed in 10% buffered formalin. Tissues were sent to Histo-Scientific Research Laboratories in Frederick, MD, USA, a contract research laboratory where they were processed, embedded in paraffin, sectioned, and stained with H&E. An American College of Veterinary Pathology-certified pathologist evaluated slides.

wild type dogs = details: dog, in vivo
Experimental: as §1

wild type and GRMD dogs [3] = details: dog, in vivo; remark: listed apart in the source
Experimental: NBD peptide (TALDWSWLQTE) fused to an Antennapedia protein transduction domain [9] was generated using an ABI 430A solid-phase peptide synthesizer (Applied Biosystems, Foster City, CA, USA) as previously described. NBD solutions (10 mg/mL) for the canine studies were prepared weekly. Needed volumes were calculated based on the current dog body weights, plus estimated weekly gain averages. Compound was weighed on a laboratory balance to the nearest 0.1 g and reconstituted in sterile water. Solution was then sterile-filtered through 0.22 μm filters into a sterile fluid administration bag and refrigerated at 4°C until use. […] Heart and respiratory rate, mucous membrane color, capillary refill time, and body temperature were monitored throughout the perfusion. […] The syringe pump was initially programed to administer the calculated volume over 10 min, but this was extended to 30 min when reactions were seen. Blood pressure was recorded prior to start of perfusion, at 5-min intervals throughout perfusion, and post-perfusion (Cardell® 9405 Multiparameter Monitor, Midmark Corporation, Versailles, OH, USA). Dogs were monitored for adverse reactions throughout the perfusion and for up to 30 min after completion.

GRMD dogs [4] = assay: Eccentric contraction decrement (ECD), GRMD dogs; format: in vivo, dog; details: n = 6; for ECD (1-10): after 10 contractions; for ECD (1-30): after 30 contractions
Source text: Eccentric contractions were induced by stimulating the peroneal nerve using square wave pulses of 100 μs duration in a tetanic run for 1 s at a frequency of 50 Hz while simultaneously extending the TTJ with a servomotor (Aurora Scientific, Aurora, ON, Canada). The contraction was held isometric at the optimal joint angle, expressed as Lo here (see discussion above), for the first 900 ms. For the final 100 ms, the muscles of the cranial tibial compartment were stretched by the servomotor at 0.7 Lo/s, such that the muscles were displaced to 107% of Lo. Thus, the muscles of the cranial tibial compartment were repeatedly stretched to induce mechanical damage. Three sets of 10 stretches for a total of 30, each set separated by 4 min, were performed. Contraction-induced injury was quantified by the force (torque) deficit (Fd) using the following equation: Fd = (Maximal isometric tetanic force (Po) before stretch - Po after stretch/Po before stretch) × 100.

[5] = dog, in vivo, iv, 10 mg/kg
Experimental: In addition to efficacy, we were interested in examining the safety profile of NBD, since long-term dosing in any animal model had yet to be performed. Blood samples at pre-dose, mid dose, and terminal dose were obtained for hematology and serum chemistry analysis. […] Supplementary file 2044-5040-4-18-S2.jpeg: Additional file 2: Figure S2 Hematologic changes in NBD-treated dogs. Serum was prepared from blood samples obtained at indicated time points prior to and following dosing with NBD in wild type and GRMD dogs. Serum samples were analyzed for complete blood counts (CBC). The graphs show results for white blood cells, red blood cells, and platelet counts. Click here for file Supplementary file 2044-5040-4-18-S3.jpeg: Additional file 3: Figure S3 Clinicopathologic changes in NBD-treated dogs. Serum was prepared from blood samples obtained at indicated time points prior to and following dosing with NBD in wild type and GRMD dogs. Serum samples were analyzed for ALT, AST, GGT, bilirubin, creatinine, potassium, and creatine kinase. Click here for file

[6] = Average rescue of 4 muscles, NBD 10 mg/kg IV 3x weekly for 4 months
[7] = Cranial sartorius, NBD 10 mg/kg IV 3x weekly for 4 months, p = 0.14
[8] = Diaphragm, NBD 10 mg/kg IV 3x weekly for 4 months
[9] = Lateral gastroc, NBD 10 mg/kg IV 3x weekly for 4 months
[10] = Vastus lateralis, NBD 10 mg/kg IV 3x weekly for 4 months
[11] = NBD group, age 2 months (start of treatment)
[12] = age 6 months, NBD 10 mg/kg IV 3x weekly for 4 months

Sequence: TALDWSWLQTE [NBD, NBD peptide (…) fused to an Antennapedia protein transduction domain]
- Efficacy on dose reduction (mdx mice; IP 3x per week, concentrations of NBD reduced from 10 to 2 mg/kg): efficacy was lost
- Functional improvement, mdx diaphragm (mdx mice; NBD-treated mdx mice): 43%
- Inflammation (PM2K-positive macrophages), percent difference GRMD vs GRMD + NBD (GRMD dogs [1]; [6]): 35.5%
- Necrosis (IgG-positive myofibers), percent difference GRMD vs GRMD + NBD (GRMD dogs [1]; [6]): 30.3%
- Regeneration (centrally located nuclei), percent difference GRMD vs GRMD + NBD (GRMD dogs [1]; [6]): 40.8%
- Inflammation (PM2K-positive macrophages), percent difference GRMD vs GRMD + NBD (GRMD dogs [1]; Cranial sartorius, NBD 10 mg/kg IV 3x weekly for 4 months, p < 0.05): 34%
- Necrosis (Foci, H&E), percent difference GRMD vs GRMD + NBD (GRMD dogs [1]; [7]): 25%
- Necrosis (IgG-positive myofibers), percent difference GRMD vs GRMD + NBD (GRMD dogs [1]; [7]): 22%
- Regeneration (centrally located nuclei), percent difference GRMD vs GRMD + NBD (GRMD dogs [1]; Cranial sartorius, NBD 10 mg/kg IV 3x weekly for 4 months, reduced, p < 0.05): 43%
- Inflammation (PM2K-positive macrophages), percent difference GRMD vs GRMD + NBD (GRMD dogs [1]; [8]): 37%
- Necrosis (Foci, H&E), percent difference GRMD vs GRMD + NBD (GRMD dogs [1]; [8]): 37%
- Necrosis (IgG-positive myofibers), percent difference GRMD vs GRMD + NBD (GRMD dogs [1]; [8]): 32%
- Regeneration (centrally located nuclei), percent difference GRMD vs GRMD + NBD (GRMD dogs [1]; [8]): 41%
- Final Histological Score of Improvement (composite of all four muscles) (GRMD dogs [1]; GRMD + NBD vs untreated GRMD, NBD 10 mg/kg IV 3x weekly for 4 months): 35.5%
- Reduction of CS myofiber size vs untreated GRMD muscles (GRMD dogs [1]; GRMD + NBD, n = 6, 1800 fibers, P <0.05): 46%
- Inflammation (PM2K-positive macrophages), percent difference GRMD vs GRMD + NBD (GRMD dogs [1]; [9]): 40%
- Necrosis (Foci, H&E), percent difference GRMD vs GRMD + NBD (GRMD dogs [1]; [9]): 34%
- Regeneration (centrally located nuclei), percent difference GRMD vs GRMD + NBD (GRMD dogs [1]; [9]): 35%
- Inflammation (PM2K-positive macrophages), percent difference GRMD vs GRMD + NBD (GRMD dogs [1]; [10]): 31%
- Necrosis (IgG-positive myofibers), percent difference GRMD vs GRMD + NBD (GRMD dogs [1]; [10]): 32%
- Regeneration (centrally located nuclei), percent difference GRMD vs GRMD + NBD (GRMD dogs [1]; [10]): 44%
- Necropsy findings (wild type and GRMD dogs [2]): histopathological changes related to NBD
- Histopathological lesions in NBD treated versus untreated wild type dogs (wild type dogs): negligible
- Blood pressure during administration (wild type and GRMD dogs [3]): decreased
- Onset of infusion reactions (time of treatment) (wild type and GRMD dogs [3]; iv, 10 mg/kg): approximately 1 month
- ECD (1-10) (GRMD dogs [4]; [11]): 16.12 ± 5.88%
- ECD (1-10) (GRMD dogs [4]; [12]): 32.04 ± 13.46%
- ECD (1-30) (GRMD dogs [4]; [11]): 38.67 ± 10.34%
- ECD (1-30) (GRMD dogs [4]; [12]): 54.48 ± 13.64%
- Hematology and serum chemistry analysis [5]: no adverse effects

Source: article PMC4364341, “NBD delivery improves the disease phenotype of the golden retriever model of Duchenne muscular dystrophy” (Skeletal Muscle, 2014)
